Experimental data from paper PMC5035920, “Exploring functional roles of TRPV1 intracellular domains with unstructured peptide-insertion screening” (Scientific Reports, 2016).

What was measured:
mTRPV1 (mouse TRPV1) [1] = target: T1, mTRPV1 (mouse TRPV1) (Mus musculus, UniProt Q704Y3); test: patch-clamp of transfected HEK293 cells, concentration-response, Hill fit; type: cell-based
T1 construct: full-length mTRPV1 cDNA in pEYFP-N3, C-terminal eYFP fusion, transiently expressed in HEK293 cells; homotetramer
T1 sequence (Q704Y3 whole entry, the tested form may be a part): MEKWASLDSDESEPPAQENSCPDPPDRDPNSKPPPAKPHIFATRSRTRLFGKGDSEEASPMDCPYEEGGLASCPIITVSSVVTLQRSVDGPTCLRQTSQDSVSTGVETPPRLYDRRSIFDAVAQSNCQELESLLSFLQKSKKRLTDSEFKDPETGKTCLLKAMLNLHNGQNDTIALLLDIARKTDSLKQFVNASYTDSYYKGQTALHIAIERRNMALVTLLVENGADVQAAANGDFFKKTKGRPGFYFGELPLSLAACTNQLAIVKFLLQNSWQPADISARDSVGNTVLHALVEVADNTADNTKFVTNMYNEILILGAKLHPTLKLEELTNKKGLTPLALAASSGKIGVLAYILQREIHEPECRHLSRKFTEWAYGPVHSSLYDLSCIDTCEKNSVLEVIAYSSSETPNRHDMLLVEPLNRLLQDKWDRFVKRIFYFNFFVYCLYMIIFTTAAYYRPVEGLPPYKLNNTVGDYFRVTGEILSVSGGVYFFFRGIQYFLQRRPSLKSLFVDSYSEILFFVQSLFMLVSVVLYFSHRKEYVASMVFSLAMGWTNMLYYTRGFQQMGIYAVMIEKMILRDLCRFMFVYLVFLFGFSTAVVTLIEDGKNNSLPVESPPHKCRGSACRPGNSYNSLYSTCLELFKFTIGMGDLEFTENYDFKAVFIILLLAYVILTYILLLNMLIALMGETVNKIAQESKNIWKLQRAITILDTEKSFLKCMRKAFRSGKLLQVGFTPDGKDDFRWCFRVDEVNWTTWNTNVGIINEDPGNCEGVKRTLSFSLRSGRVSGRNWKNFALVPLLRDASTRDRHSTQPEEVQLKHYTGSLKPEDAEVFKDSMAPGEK

mTRPV1 (mouse TRPV1) [2] = target: T2, mTRPV1 (mouse TRPV1) (Mus musculus, UniProt Q704Y3, INS430GGG); test: as above; type: cell-based
T2 construct: full-length mTRPV1 cDNA in pEYFP-N3, C-terminal eYFP fusion, transiently expressed in HEK293 cells; homotetramer
T2 sequence (Q704Y3 with tags, fused parts or gaps INS430GGG): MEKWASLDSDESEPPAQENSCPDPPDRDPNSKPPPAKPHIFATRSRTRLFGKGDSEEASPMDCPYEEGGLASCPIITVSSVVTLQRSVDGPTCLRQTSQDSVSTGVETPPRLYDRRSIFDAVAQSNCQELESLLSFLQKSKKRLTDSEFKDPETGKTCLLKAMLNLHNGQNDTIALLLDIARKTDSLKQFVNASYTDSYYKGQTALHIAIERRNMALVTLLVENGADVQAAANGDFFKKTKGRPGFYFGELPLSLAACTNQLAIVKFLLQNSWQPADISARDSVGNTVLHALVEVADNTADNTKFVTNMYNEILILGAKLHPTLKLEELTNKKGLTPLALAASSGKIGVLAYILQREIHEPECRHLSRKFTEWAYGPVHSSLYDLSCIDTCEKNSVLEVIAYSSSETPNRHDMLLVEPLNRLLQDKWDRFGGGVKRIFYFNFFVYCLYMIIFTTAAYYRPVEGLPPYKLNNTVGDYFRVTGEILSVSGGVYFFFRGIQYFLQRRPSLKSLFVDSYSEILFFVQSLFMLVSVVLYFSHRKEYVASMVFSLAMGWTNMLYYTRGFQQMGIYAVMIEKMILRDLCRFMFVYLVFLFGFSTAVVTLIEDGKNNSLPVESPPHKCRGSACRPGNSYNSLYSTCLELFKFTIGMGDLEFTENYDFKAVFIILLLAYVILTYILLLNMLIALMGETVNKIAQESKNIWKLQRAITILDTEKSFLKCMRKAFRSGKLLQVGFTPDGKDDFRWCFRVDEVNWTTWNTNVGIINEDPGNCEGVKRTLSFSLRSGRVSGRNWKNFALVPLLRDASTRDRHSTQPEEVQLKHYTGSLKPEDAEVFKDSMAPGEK

Which EC50 (mTRPV1 (mouse TRPV1) [1]) does the source give for COc1cc(CNC(=O)CCCC/C=C/C(C)C)ccc1O [capsaicin] here?
The EC50 was 0.15 ± 0.02 µM.

What about the EC50 (mTRPV1 (mouse TRPV1) [2]) of the same compound?
The EC50 was 0.07 ± 0.03 µM.
